Laboratory results: US20210161882A1, “DEPOT ADMINISTRATION OF ILOPERIDONE” (Vanda Pharmaceuticals Inc., priority 2018, published 2021)

Test: Crystalline iloperidone particle size determination (Malvern Mastersizer 2000 laser light scattering)
Assay type: physicochemical
Conditions: wet dispersion in saturated 0.1% Tween 80, average of n=2 trials, each the average of 5 acquisitions
Experimental: Crystalline iloperidone particle sizes are determined in accordance with the following example. The Malvern Mastersizer 2000 (Malvern Instruments, Ltd., Malvern, UK) laser light scattering particle size analyzer and Hydro 2000 (Malvern Instruments, Ltd., Malvern, UK) wet sample dispersion unit are turned on, allowing time for the laser to warm up, e.g., for about 30 minutes. The PC is turned on, Mastersizer 2000 software is opened, and a file is created for storing results. An instrument verification check is performed according to SGS SOP EQP-525-10 Operation Preventative Maintenance and Performance Verification of the Mastersizer 2000. A new file for results storage is created, and the device is configured for Existing SOP for iloperidone. The parameters listed under the SOP are verified to confirm accuracy, namely: sample material name, iloperidone depot for injection; refractive index, 1.53, absorption, 0.1; dispersant medium, saturate 0.1% Tween 80 (Sigma Aldrich Co., St. Louis, Mo.) with 0.1% w/v sample; refractive index, 1.33; result model, general purpose; particle shape, irregular; sensitivity, normal; pump speed, 2000 RPM; sample measurement time, 12 seconds (12,000 snaps); background measurement time, 12 seconds (12,000 snaps); size range, 0.020 to 2000.000 μm; aliquot per SOP, 1; number of measurement cycles, 5 (report average); obscuration limits, 10-20%. Verification is made that the outlet tube of the dispersion unit is into the waste tank, and the tank is not full; the waste container is emptied on an as needed basis. […]
Samples are prepared by saturating 0.1% Tween 80 (Sigma-Aldrich Co., St. Louis, Mo.) polysorbate 80 with 0.1% w/v crystalline iloperidone. […] The SOP is started with the parameters for the sample so that the instrument is ready to perform measurements as soon as the sample is introduced to the Hydro 2000 unit. […] Each sample is measured twice (out of one preparation).
The resulting histogram is then evaluated. […]

average Dv10: 14-50 μm
average Dv50: 91-118 μm
average Dv90: 188-241 μm
Compound: COc1cc(C(C)=O)ccc1OCCCN1CCC(c2noc3cc(F)ccc23)CC1 [crystalline iloperidone, 1-[4-[3-[4-(6-flouro-1,2-benzisoxazol-3-yl)-1-piperidinyl]propoxy]-3-methoxyphenyl]ethanone]
